Test results taken from publication PMC6934184, “Selective DNA-PKcs inhibition extends the therapeutic index of localized radiotherapy and chemotherapy” (The Journal of Clinical Investigation, 2019).

Biological target: T1, FYN A (Homo sapiens, UniProt P06241)
T1 construct: purchased Thermo Fisher Scientific (Life Technologies) SelectScreen
Assay: SelectScreen LanthaScreen
Format: binding
Conditions: read-out: % displacement
In short: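 SelectScreen broad panel; activity (Z'LYTE, Adapta) plus binding formats. ATP: Km app for CSF1R Z'LYTE; 10 for CAMK1 Adapta. Readout = % per kinase.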

T1 sequence (P06241 whole entry): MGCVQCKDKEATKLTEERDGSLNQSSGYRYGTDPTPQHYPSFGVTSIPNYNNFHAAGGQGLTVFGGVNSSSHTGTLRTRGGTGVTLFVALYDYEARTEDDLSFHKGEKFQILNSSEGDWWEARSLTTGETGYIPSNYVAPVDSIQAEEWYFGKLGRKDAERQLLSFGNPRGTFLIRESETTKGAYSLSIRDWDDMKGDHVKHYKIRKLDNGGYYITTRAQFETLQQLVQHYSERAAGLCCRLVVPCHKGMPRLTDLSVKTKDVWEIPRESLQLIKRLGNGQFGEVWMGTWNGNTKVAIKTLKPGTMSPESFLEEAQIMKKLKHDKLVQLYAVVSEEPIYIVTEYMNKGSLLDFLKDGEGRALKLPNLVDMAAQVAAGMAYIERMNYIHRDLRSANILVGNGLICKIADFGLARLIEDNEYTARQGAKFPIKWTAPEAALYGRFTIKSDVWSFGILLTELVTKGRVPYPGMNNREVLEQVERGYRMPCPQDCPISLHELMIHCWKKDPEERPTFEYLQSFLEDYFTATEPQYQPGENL

SMILES: CN(C(=O)CN1CCOCC1)c1ccc2sc3c(-c4cccc5c(=O)cc(N6CC7CCC(C6)O7)oc45)cccc3c2c1 [NU5455]
- inhibition at 1 µM: 3.3%
